Laboratory results as given in US20110295343A1, “NEAR-INFRARED ELECTROMAGNETIC MODIFICATION OF CELLULAR STEADY-STATE MEMBRANE POTENTIALS” (priority 2008, published 2011).
“And” between values parts separate entries of the source, which are not always exact repeats. Equal values may be shown once.

System: MRSA (ATCC BAA-43)
Test: MRSA/antimicrobial potentiation, CFU on TSB agar with and without antibiotic after laser (Example XXII, Experiments 1-4)
Format: cell-based, Staphylococcus aureus subsp. aureus
Settings: for CFU (single plate count): 0.5 μg/ml penicillin G or 4 μg/ml erythromycin, plates 1-5; for AVG (CFU): mean of 5 plates; for Drug Effect: CFU with drug relative to without drug; for Laser Effect (+Drug): Exp vs Cont, both with drug; for Laser Effect (+Meth): both on 30 μg/ml methicillin; for Meth Effect: CFU with methicillin / without; for AVG: mean of plates; for CFU: replicate plates
Method: Four separate experiments have been performed.
Eight different laser dosages were used to treat a saline-suspension of logarithmically growing MRSA, labeled A1 to H1.
The treated and a control untreated suspension were diluted and plated in triplicate on trypic soy agar with or without 30 μg/ml methicillin After 24 hrs of growth at 37° C. colonies were counted.
CFU (colony forming units) were compared between the plates with and without methicillin for both control (untreated) and treated MRSA.
The treated and a control untreated suspension were diluted and plated in triplicate on trypic soy agar with or without 30 μg/mlmethicillin.
After 24 hrs of growth at 37° C. colonies were counted.
The treated and a control untreated suspension were diluted and plated in pentuplicate on trypic soy agar with or without 30 μg/ml methicillin.

[1] = Cont (no laser), Drug yes, groups A4/C4/E4
[2] = Cont (no laser), Drug yes, groups B4/D4/F4
[3] = Exp (laser 870+930 at 5 W 14 min, then 930 at 6 W 9 min), Drug yes, groups B4/D4/F4
[4] = Exp (laser 870+930 at 5.5 W 12 min, then 930 at 8 W 6 min), Drug yes, groups A4/C4/E4
[5] = Exp#1 A1 Cont (no laser), agar with 30 μg/ml methicillin
[6] = Exp#1 A1 Exp (laser treated), agar with 30 μg/ml methicillin
[7] = Exp#1 B1 Cont (no laser), agar with 30 μg/ml methicillin
[8] = Exp#1 B1 Exp (laser treated), agar with 30 μg/ml methicillin
[9] = Exp#1 C1 Cont (no laser), agar with 30 μg/ml methicillin
[10] = Exp#1 C1 Exp (laser treated), agar with 30 μg/ml methicillin
[11] = Exp#1 D1 Cont (no laser), agar with 30 μg/ml methicillin
[12] = Exp#1 D1 Exp (laser treated), agar with 30 μg/ml methicillin
[13] = Exp#1 E1 Cont (no laser), agar with 30 μg/ml methicillin
[14] = Exp#1 E1 Exp (laser treated), agar with 30 μg/ml methicillin
[15] = Exp#1 F1 Cont (no laser), agar with 30 μg/ml methicillin
[16] = Exp#1 F1 Exp (laser treated), agar with 30 μg/ml methicillin
[17] = Exp#1 G1 Cont (no laser), agar with 30 μg/ml methicillin
[18] = Exp#1 G1 Exp (laser treated), agar with 30 μg/ml methicillin
[19] = Exp#1 H1 Cont (no laser), agar with 30 μg/ml methicillin
[20] = Exp#1 H1 Exp (laser treated), agar with 30 μg/ml methicillin
[21] = Exp#2 A2 Cont (no laser), agar with 30 μg/ml methicillin
[22] = Exp#2 A2 Exp (laser treated), agar with 30 μg/ml methicillin
[23] = Exp#2 B2 Cont (no laser), agar with 30 μg/ml methicillin
[24] = Exp#2 B2 Exp (laser treated), agar with 30 μg/ml methicillin

SMILES: COc1cccc(OC)c1C(=O)N[C@@H]1C(=O)N2[C@@H]1SC(C)(C)[C@@H]2C(=O)O [Methicillin]
- CFU/ml [1]: 2.59E+08 CFU/ml
- CFU (single plate count) (Cont (no laser), Drug yes, groups A4/C4/E4, agar with 30 μg/ml methicillin, 24 hrs 37° C.): 97 CFU and 104 CFU and 82 CFU and 58 CFU and 90 CFU
- AVG (CFU) [1]: 86.2 CFU
- CFU/ml [2]: 3.98E+08 CFU/ml
- CFU (single plate count) (Cont (no laser), Drug yes, groups B4/D4/F4, agar with 30 μg/ml methicillin, 24 hrs 37° C.): 149 CFU and 101 CFU and 119 CFU and 153 CFU and 141 CFU
- AVG (CFU) [2]: 132.6 CFU
- Drug Effect (Cont (no laser), groups A4/C4/E4): 0.94
- Drug Effect (Cont (no laser), groups B4/D4/F4): 1.26
- CFU/ml [3]: 1.27E+08 CFU/ml
- AVG (CFU) [3]: 42.4 CFU
- Drug Effect (Exp (laser 870+930 at 5 W 14 min, then 930 at 6 W 9 min), groups B4/D4/F4): 0.48
- CFU/ml [4]: 1.09E+08 CFU/ml
- AVG (CFU) [4]: 36.2 CFU
- Drug Effect (Exp (laser 870+930 at 5.5 W 12 min, then 930 at 8 W 6 min), groups A4/C4/E4): 0.43
- CFU (single plate count) (Exp (laser: 870 at 5 W and 930 at 5 W for 14 min followed by 930 at 6 W for 9 min), Drug yes, groups B4/D4/F4, 30 μg/ml methicillin): 46 CFU and 34 CFU and 42 CFU and 44 CFU
- CFU (single plate count) (Exp (laser: 870 at 5.5 W and 930 at 5.5 W for 12 min followed by 930 at 8 W for 6 min), Drug yes, groups A4/C4/E4, 30 μg/ml methicillin): 37 CFU and 33 CFU and 36 CFU and 39 CFU
- Laser Effect (+Drug) (laser 870+930 at 5 W 14 min, then 930 at 6 W 9 min, groups B4/D4/F4): 0.32
- Laser Effect (+Drug) (laser 870+930 at 5.5 W 12 min, then 930 at 8 W 6 min, groups A4/C4/E4): 0.42
- Laser Effect (+Meth) (Exp#1 A1, laser Exp / Cont): 0.7035
- Meth Effect (Exp#1 A1 Cont (no laser)): 0.6956
- CFU/ml [5]: 4.25E+08 CFU/ml
- AVG [5]: 141.7 CFU
- CFU [5]: 207 CFU and 137 CFU and 81 CFU
- Meth Effect (Exp#1 A1 Exp (laser treated)): 0.7419
- CFU/ml [6]: 2.99E+08 CFU/ml
- AVG [6]: 99.7 CFU
- CFU [6]: 99 CFU and 96 CFU and 104 CFU
- Laser Effect (+Meth) (Exp#1 B1, laser Exp / Cont): 0.6693
- Meth Effect (Exp#1 B1 Cont (no laser)): 0.8991
- CFU/ml [7]: 5.08E+08 CFU/ml
- AVG [7]: 169.3 CFU
- CFU [7]: 166 CFU and 192 CFU and 150 CFU
- Meth Effect (Exp#1 B1 Exp (laser treated)): 0.5657
- CFU/ml [8]: 3.40E+08 CFU/ml
- AVG [8]: 113.3 CFU
- CFU [8]: 102 CFU and 107 CFU and 131 CFU
- Laser Effect (+Meth) (Exp#1 C1, laser Exp / Cont): 0.3259
- Meth Effect (Exp#1 C1 Cont (no laser)): 1.267
- CFU/ml [9]: 1.22E+09 CFU/ml
- AVG [9]: 406 CFU
- CFU [9]: 240 CFU and 466 CFU and 512 CFU
- Meth Effect (Exp#1 C1 Exp (laser treated)): 0.7192
- CFU/ml [10]: 3.97E+08 CFU/ml
- AVG [10]: 132.3 CFU
- CFU [10]: 95 CFU and 176 CFU and 126 CFU
- Laser Effect (+Meth) (Exp#1 D1, laser Exp / Cont): 1.0087
- Meth Effect (Exp#1 D1 Cont (no laser)): 0.837
- CFU/ml [11]: 4.62E+08 CFU/ml
- AVG [11]: 154 CFU
- CFU [11]: 171 CFU and 141 CFU and 150 CFU
- Meth Effect (Exp#1 D1 Exp (laser treated)): 0.7627
- CFU/ml [12]: 4.66E+08 CFU/ml
- AVG [12]: 155.3 CFU
- CFU [12]: 164 CFU and 153 CFU and 149 CFU
- Laser Effect (+Meth) (Exp#1 E1, laser Exp / Cont): 1.632
- Meth Effect (Exp#1 E1 Cont (no laser)): 0.5828
- CFU/ml [13]: 3.94E+08 CFU/ml
- AVG [13]: 131.3 CFU
- CFU [13]: 147 CFU and 121 CFU and 126 CFU
- Meth Effect (Exp#1 E1 Exp (laser treated)): 0.8297
- CFU/ml [14]: 6.43E+08 CFU/ml
- AVG [14]: 214.3 CFU
- CFU [14]: 181 CFU and 232 CFU and 230 CFU
- Laser Effect (+Meth) (Exp#1 F1, laser Exp / Cont): 0.9949
- Meth Effect (Exp#1 F1 Cont (no laser)): 0.8735
- CFU/ml [15]: 5.94E+08 CFU/ml
- AVG [15]: 198 CFU
- CFU [15]: 197 CFU and 188 CFU and 209 CFU
- Meth Effect (Exp#1 F1 Exp (laser treated)): 0.8289
- CFU/ml [16]: 5.91E+08 CFU/ml
- AVG [16]: 197 CFU
- CFU [16]: 206 CFU (2×) and 179 CFU
- Laser Effect (+Meth) (Exp#1 G1, laser Exp / Cont): 0.9605
- Meth Effect (Exp#1 G1 Cont (no laser)): 0.9792
- CFU/ml [17]: 6.58E+08 CFU/ml
- AVG [17]: 219.3 CFU
- CFU [17]: 246 CFU and 222 CFU and 190 CFU
- Meth Effect (Exp#1 G1 Exp (laser treated)): 0.8681
- CFU/ml [18]: 6.32E+08 CFU/ml
- AVG [18]: 210.7 CFU
- CFU [18]: 193 CFU and 237 CFU and 202 CFU
- Laser Effect (+Meth) (Exp#1 H1, laser Exp / Cont): 1.0381
- Meth Effect (Exp#1 H1 Cont (no laser)): 0.7533
- CFU/ml [19]: 5.77E+08 CFU/ml
- AVG [19]: 192.3 CFU
- CFU [19]: 188 CFU and 206 CFU and 183 CFU
- Meth Effect (Exp#1 H1 Exp (laser treated)): 0.815
- CFU/ml [20]: 5.99E+08 CFU/ml
- AVG [20]: 199.7 CFU
- CFU [20]: 211 CFU and 212 CFU and 176 CFU
- Laser Effect (+Meth) (Exp#2 A2, laser Exp / Cont): 1.15
- Meth Effect (Exp#2 A2 Cont (no laser)): 0.72
- CFU/ml [21]: 1.07E+08 CFU/ml
- AVG [21]: 35.7 CFU
- CFU [21]: 35 CFU and 47 CFU and 25 CFU
- Meth Effect (Exp#2 A2 Exp (laser treated)): 0.87
- CFU/ml [22]: 1.23E+08 CFU/ml
- AVG [22]: 41 CFU
- CFU [22]: 39 CFU and 48 CFU and 36 CFU
- Laser Effect (+Meth) (Exp#2 B2, laser Exp / Cont): 0.54
- Meth Effect (Exp#2 B2 Cont (no laser)): 0.7
- CFU/ml [23]: 1.49E+08 CFU/ml
- AVG [23]: 49.7 CFU
- CFU [23]: 47 CFU and 56 CFU and 46 CFU
- Meth Effect (Exp#2 B2 Exp (laser treated)): 0.77
- CFU/ml [24]: 8.00E+07 CFU/ml
- AVG [24]: 26.7 CFU
- CFU [24]: 27 CFU and 28 CFU and 25 CFU
- Laser Effect (+Meth) (Exp#2 C2, laser Exp / Cont): 0.23
- Meth Effect (Exp#2 C2 Cont (no laser)): 0.99
